The target in assay [1] is Magnaporthe oryzae bilirubin oxidase (BOD), produced in Pichia pastoris, SEQ. ID. No.3 (SEQ. ID. No.1 with additional N-terminal serine) (Pyricularia oryzae, UniProt G4MQU0). It counts as biochemical. To be noted: 37° C., citrate-phosphate buffer 50 mM pH 3.6, bilirubin 0 to 100 μM.
Assay [2] deals with Myrothecium verrucaria bilirubin oxidase (BOD), produced in Pichia pastoris. To be noted: pH 6.5, with respect to ABTS; cited from earlier work.

By Km is commonly meant the substrate concentration at which the rate is half of its maximum. Usually kcat stands for the maximal rate divided by the concentration of active sites.

For conjugated bilirubin, in assay [1], the Km worked out at 18.5 µM and the catalytic constant (kcat) was determined as 28 s⁻¹.

With `CCn1c(=NN=c2sc3cc(S(=O)(=O)O)ccc3n2CC)sc2cc(S(=O)(=O)O)ccc21` [ABTS, 2,2′-azino-bis(3-ethylbenzothiazoline-6-sulphonic acid)], in assay [2], the Km was 340 µM.
